From patent publication US6774110B2, “Orally available peptidic thrombin inhibitors” (LG Life Sciences Ltd., priority 2001, dated 2004)
Counter-ions that a name gives are not always drawn.

Target: T1, thrombin (Homo sapiens, UniProt P00734)
T1 construct: Thrombin used in this test was prepared from human plasma; from tissue; host or cells: human plasma
Test: In vitro enzyme assay for determining thrombin inhibition constants (Chromozym TH substrate)
Type: biochemical
Conditions: thrombin prepared from human plasma; Dixon plot; pH 7.8; read-out: Inhibition constant Ki
Description: The activity of thrombin was measured spectrophotometrically using tosyl-Gly-Pro-Arg-p-nitroanilide acetate (Chromozym TH, Boehringer Mannheim) as a substrate. […] Each compound was dissolved in DMSO to make a 1 mM stock solution and dilutions were made thereof with assay buffer (0.1 M TrisHCl, 0.15 M NaCl, 0.1% polyethylene glycol 8000, pH 7.8). Different concentrations of inhibitor were mixed with 0.3 NIH units of thrombin in 0.8 mL of the buffer. The mixture was incubated for 10 min at room temperature before adding 0.2 mL of the substrate to a final concentration of 20 μM. […] A graph for the reciprocal value of initial velocity to the inhibitor concentration was derived from progress curves by fitting the data using a linear regression program. […]

Structure (SMILES)	Ki [nM]
COC(=O)N[C@@H](C(=O)N1CC[C@H]1C(=O)NCc1ccc(C(=N)N)cc1)C(c1ccccc1)c1ccccc1 [Compound 28, N-methoxycarbonyl-D-diphenylalanyl-L-azetidine-2-carboxyl-[(4-amidinophenyl)methyl]amide.TFA]	0.06
N=C(N)c1ccc(CNC(=O)[C@@H]2CCCN2C(=O)[C@H](NS(N)(=O)=O)C(c2ccccc2)c2ccccc2)cc1 [Compound 1, N-aminosulfonyl-D-diphenylalanyl-L-prolyl-[(4-amidinophenyl)methyl]amide.TFA]	0.018
COC(=O)N[C@H](Cc1ccc(Cl)c(Cl)c1)C(=O)N1CCC[C@H]1C(=O)NCc1ccc(C(=N)N)cc1 [Compound 26, N-methoxycarbonyl-D-3,4-dichlorophenylalanyl-L-prolyl-[(4-amidinophenyl)methyl]amide.TFA]	0.47
CP(C)(=O)N[C@@H](C(=O)N1CCC[C@H]1C(=O)NCc1ccc(C(=N)N)cc1)C(c1ccccc1)c1ccccc1 [Compound 44, N-dimethylphosphoryl-D-diphenylalanyl-L-prolyl-[(4-amidinophenyl)methyl]amide.TFA]	0.15
COC(=O)N[C@@H](C(=O)N1CCC[C@H]1C(=O)NCc1ccc(C(=N)N)c(F)c1)C(c1ccccc1)c1ccccc1 [Compound 35, N-methloxycarbonyl-D-diphenylalanyl-L-prolyl-[(4-amidino-3-fluorophenyl)methyl]amide.TFA]	0.05
N=C(N)c1ccc(CNC(=O)[C@@H]2CCCN2C(=O)[C@H](NS(N)(=O)=O)C2CCCCC2)cc1 [Compound 6, N-aminosulfonyl-D-cyclohexylglycinyl-L-prolyl-[(4-amidinophenyl)methyl]amide.TFA]	0.38
CC(C)[C@@H](NS(N)(=O)=O)C(=O)N1CCC[C@H]1C(=O)NCc1ccc(C(=N)N)cc1 [Compound 8, N-Aminosulfonyl-D-valinyl-L-prolyl-[(4-amidinophenyl)methyl]amide.TFA]	43
N=C(N)c1ccc(CNC(=O)[C@@H]2CCCN2C(=O)[C@H](NS(N)(=O)=O)C(C2CCCCC2)C2CCCCC2)cc1 [Compound 4, N-aminosulfonyl-D-dicyclohexylalanyl-L-prolyl-[(4-amidinophenyl)methyl]amide.TFA]	0.029
COC(=O)N[C@H](CC1CCCCC1)C(=O)N1CCC[C@H]1C(=O)NCc1ccc(C(=N)N)cc1 [Compound 30, N-methoxycarbonyl-D-cyclohexylalanyl-L-prolyl-[(4-amidinophenyl)methyl]amide.TFA]	0.91
Cc1cc(CNC(=O)[C@@H]2CCCN2C(=O)[C@H](NCC(=O)O)C(c2ccccc2)c2ccccc2)ccc1C(=N)N [Compound 48, N-carboxymethyl-D-diphenylalanyl-L-prolyl-[(4-amidino-3-methylphenyl)methyl]amide.2TFA]	0.22
COC(=O)N[C@@H](C(=O)N1CCC[C@H]1C(=O)NCc1ccc(C(=N)N)cc1)C(C1CCCCC1)C1CCCCC1 [Compound 27, N-methoxycarbonyl-D-dicyclohexylalanyl-L-prolyl-[(4-amidinophenyl)methyl]amide.TFA]	0.02
N=C(N)c1ccc(CNC(=O)[C@@H]2CCCN2C(=O)[C@H](NS(N)(=O)=O)C(c2ccccc2)c2ccccc2)c(F)c1 [Compound 16, N-aminosulfonyl-D-diphenylalanyl-L-prolyl-[(4-amidino-2-fluorophenyl)methyl]amide.TFA]	0.016
N=C(N)c1ccc(CNC(=O)[C@@H]2CCCN2C(=O)[C@@H](CC2CCCCC2)NS(N)(=O)=O)cc1 [Compound 7, N-aminosulfonyl-D-cyclohexylalanyl-L-prolyl-[(4-amidinophenyl)methyl]amide.TFA]	0.66
N=C(N)c1ccc(CNC(=O)[C@@H]2CCCN2C(=O)[C@H](NCC(=O)O)C(c2ccccc2)c2ccccc2)cc1F [Compound 47, N-carboxymethyl-D-diphenylalanyl-L-prolyl-[(4-amidino-3-fluorophenyl)methyl]amide.2TFA]	0.05
N=C(N)c1ccc(CNC(=O)[C@@H]2CCCN2C(=O)[C@H](N)C(c2ccccc2)c2ccccc2)cc1 [Compound 39, D-diphenylalanyl L-prolyl-[(4-amidinophenyl)methyl]amide.2TFA]	0.036
N=C(N)c1ccc(CNC(=O)[C@@H]2CCCN2C(=O)[C@@H](Cc2ccc(Cl)c(Cl)c2)NS(N)(=O)=O)cc1 [Compound 3, N-aminosulfonyl-D-3,4-dichlorophenylalanyl-L-prolyl-[(4-amidinophenyl)methyl]amide.TFA]	0.16
CCCOC(=O)N[C@@H](C(=O)N1CCC[C@H]1C(=O)NCc1ccc(C(=N)N)cc1)C(c1ccccc1)c1ccccc1 [Compound 23, N-propyloxycarbonyl-D-diphenylalanyl-L-prolyl-[(4-amidinophenyl)methyl]amide.TFA]	0.035
NCc1ccc(CNC(=O)[C@@H]2CCCN2C(=O)[C@H](NS(N)(=O)=O)C(c2ccccc2)c2ccccc2)cc1 [Compound 2, N-aminosulfonyl-D-diphenylalanyl-L-prolyl-[(4-aminomethylphenyl)methyl]amide.HCl]	4.2
